17 compounds from patent publication US8013153B2, “Substituted pyrimidine kinase inhibitors” (Janssen Pharmaceutica, N.V., priority 2006, dated 2011) can be followed below.

Some results are limits rather than exact numbers.

The target in assay [1] is T1, CDK1:Cyclin-B (Homo sapiens, UniProt P06493).
T1 construct: purchased New England Biolabs, Beverly, Mass; 6020; host or cells: insect cells
The experiment in a line: CDK1 Screening Assay. In kind it is biochemical.

Assay [2] concerns HeLa cervical adenocarcinoma. Description: Inhibition of in vitro cell proliferation (HeLa).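 Also: cells exposed to compound for 24 h, then labelled 24 h with methyl 14C-thymidine, with uptake into DNA counted by scintillation against DMSO-only control wells.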 The note with it: Homo sapiens, 14C-thymidine incorporation. In kind it is cell-based, human. On the technique in general: Dividing cells build labelled thymidine or BrdU into new DNA.
Assay [3] deals with T2, RET cytoplasmic domain (Homo sapiens, UniProt P07949).
T2 construct: the RET cytoplasmic domain consisting of the last 492 amino acids of the intracellular domain; histidine tag (N); made in house; host or cells: Hi5 insect cells
T2 sequence (P07949 658-1114 limits assumed): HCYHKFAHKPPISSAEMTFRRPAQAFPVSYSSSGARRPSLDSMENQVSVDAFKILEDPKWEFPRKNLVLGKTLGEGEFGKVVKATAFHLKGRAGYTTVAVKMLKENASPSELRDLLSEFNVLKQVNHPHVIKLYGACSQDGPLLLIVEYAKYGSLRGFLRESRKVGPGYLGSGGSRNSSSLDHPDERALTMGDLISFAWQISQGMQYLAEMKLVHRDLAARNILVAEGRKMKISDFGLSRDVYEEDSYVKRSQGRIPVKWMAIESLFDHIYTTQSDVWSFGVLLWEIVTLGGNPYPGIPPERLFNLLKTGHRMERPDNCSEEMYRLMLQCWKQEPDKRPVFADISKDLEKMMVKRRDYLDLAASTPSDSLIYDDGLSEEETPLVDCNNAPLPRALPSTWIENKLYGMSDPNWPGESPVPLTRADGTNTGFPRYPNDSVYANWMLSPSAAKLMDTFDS
The experiment in a line: RET Kinase Screening Assay. In kind it is biochemical.

Assay [4] has as its target T3, murine Aurora-A (Mus musculus, UniProt P97477).
T3 construct: replaced with the full length protein encoding the murine Aurora-A; made in house; host or cells: sf9 insect cells
T3 sequence (P97477 1-395): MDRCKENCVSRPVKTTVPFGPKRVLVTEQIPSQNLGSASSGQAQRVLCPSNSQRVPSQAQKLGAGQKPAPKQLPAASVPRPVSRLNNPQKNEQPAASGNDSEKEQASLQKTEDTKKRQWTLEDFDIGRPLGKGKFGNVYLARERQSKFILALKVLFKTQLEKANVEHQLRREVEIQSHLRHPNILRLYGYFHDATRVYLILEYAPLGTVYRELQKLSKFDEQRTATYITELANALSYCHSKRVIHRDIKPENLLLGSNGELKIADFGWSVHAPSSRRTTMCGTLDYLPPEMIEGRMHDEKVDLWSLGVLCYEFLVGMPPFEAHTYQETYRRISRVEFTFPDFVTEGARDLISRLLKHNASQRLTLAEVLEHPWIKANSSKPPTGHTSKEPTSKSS
Description: Aurora-A Screening Assay. In kind it is biochemical.

Assay [5] has as its target T4, HER2 cytoplasmic domain (Homo sapiens, UniProt P04626).
T4 construct: polyhistidine (N)
The experiment in a line: HER2 Kinase Screening Assay. In kind it is biochemical. The note with it: > means no observed 50% inhibition at the indicated test concentration; ~ means approximately 50% inhibition at that concentration.

Assay [6] deals with HCT-116 colon carcinoma. Description: Inhibition of in vitro cell proliferation (HCT116).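 Also: cells exposed to compound for 24 h, then 14C-thymidine added for a further 24 h and its uptake into DNA counted by scintillation, DMSO-only wells as control.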 The conditions noted are these: Homo sapiens, HCT-116, 14C-thymidine incorporation. In kind it is cell-based, human.
In assay [7] the test system is A375 malignant melanoma. Description: Inhibition of in vitro cell proliferation (A375).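 Also: cells plated for 24 h, given compound for 24 h, then labelled with 14C-thymidine for another 24 h, with DMSO-only wells as control and counts read by scintillation.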 Type of assay: cell-based, human. The conditions noted are these: Homo sapiens, A-375, 14C-thymidine incorporation.

T1 sequence (P06493 whole entry): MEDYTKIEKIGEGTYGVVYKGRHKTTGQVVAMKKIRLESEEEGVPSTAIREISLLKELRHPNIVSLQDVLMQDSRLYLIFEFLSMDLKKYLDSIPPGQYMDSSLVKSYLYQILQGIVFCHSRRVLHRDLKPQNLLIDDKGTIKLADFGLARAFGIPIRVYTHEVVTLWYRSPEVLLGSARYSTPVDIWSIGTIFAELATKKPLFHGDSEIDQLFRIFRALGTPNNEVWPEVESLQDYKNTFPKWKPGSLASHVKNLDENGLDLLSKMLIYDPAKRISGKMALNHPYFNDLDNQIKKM
T1 sequence (P14635 whole entry partner): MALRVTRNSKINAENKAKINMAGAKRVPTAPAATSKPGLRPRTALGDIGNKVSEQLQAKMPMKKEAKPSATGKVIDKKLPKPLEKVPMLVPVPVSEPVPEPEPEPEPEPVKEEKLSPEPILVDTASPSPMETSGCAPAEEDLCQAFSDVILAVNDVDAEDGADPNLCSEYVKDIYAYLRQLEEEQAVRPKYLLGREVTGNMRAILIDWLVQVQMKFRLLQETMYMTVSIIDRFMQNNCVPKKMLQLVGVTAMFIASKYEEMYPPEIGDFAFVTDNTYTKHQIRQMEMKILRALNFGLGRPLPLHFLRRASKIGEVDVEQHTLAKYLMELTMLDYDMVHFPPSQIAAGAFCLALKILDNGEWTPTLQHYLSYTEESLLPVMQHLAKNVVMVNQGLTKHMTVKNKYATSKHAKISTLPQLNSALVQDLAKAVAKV
T4 sequence (P04626 676-1255 limits assumed): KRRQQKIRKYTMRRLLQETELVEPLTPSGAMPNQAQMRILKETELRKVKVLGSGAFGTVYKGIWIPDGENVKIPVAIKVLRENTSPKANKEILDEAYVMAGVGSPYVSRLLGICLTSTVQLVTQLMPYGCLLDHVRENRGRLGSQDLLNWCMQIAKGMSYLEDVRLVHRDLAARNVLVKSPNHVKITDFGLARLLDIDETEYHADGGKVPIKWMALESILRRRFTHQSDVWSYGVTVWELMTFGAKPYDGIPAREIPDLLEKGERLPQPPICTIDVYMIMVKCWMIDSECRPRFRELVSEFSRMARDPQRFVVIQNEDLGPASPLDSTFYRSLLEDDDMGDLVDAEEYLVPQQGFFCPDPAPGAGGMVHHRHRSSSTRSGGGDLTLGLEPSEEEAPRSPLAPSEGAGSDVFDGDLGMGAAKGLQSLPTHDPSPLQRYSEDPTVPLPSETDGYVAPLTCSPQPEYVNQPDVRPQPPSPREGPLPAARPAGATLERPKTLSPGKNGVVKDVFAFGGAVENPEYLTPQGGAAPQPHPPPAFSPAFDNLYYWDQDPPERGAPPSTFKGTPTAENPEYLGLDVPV

With `CON=Cc1c(N)ncnc1Oc1ccc2ncccc2c1` [Cpd 5, 4-amino-6-(quinolin-6-yloxy)-pyrimidine-5-carbaldehyde O-methyl-oxime], the IC50 (commonly the concentration at which inhibition is half-maximal) in assay [1] is more than 100 µM; in assay [2], 3.43 µM; in assay [3], 2.01 µM; in assay [4], more than 10 µM; in assay [5], more than 100 µM; in assay [6], 2.87 µM. In addition, the IC50 in assay [7] was 1.82 µM.
For `CON=Cc1c(N)ncnc1Oc1ccc2c(ccn2C)c1` [Cpd 11, 4-amino-6-(1-methyl-1H-indol-5-yloxy)-pyrimidine-5-carbaldehyde O-methyl-oxime], the IC50 is more than 100 µM in assay [1]; 0.375 µM in assay [2]; more than 100 µM in assay [3]; more than 100 µM in assay [4]; more than 10 µM in assay [5]; 0.749 µM in assay [6]. The same compound showed an IC50 in assay [7] of 0.326 µM.
In the case of `Cc1cc2c(F)c(Oc3ncnc(N)c3C=NOCCCO)ccc2[nH]1` [Cpd 29, 4-amino-6-(4-fluoro-2-methyl-1H-indol-5-yloxy)-pyrimidine-5-carbaldehyde O-(3-hydroxy-propyl)-oxime], the IC50 was more than 100 µM in assay [1]; 0.362 µM in assay [2]; more than 10 µM in assay [3]; more than 10 µM in assay [4]; 4.63 µM in assay [5]; 0.452 µM in assay [6]. Moreover, the IC50 in assay [7] came to 0.336 µM.
Take `CNCCON=Cc1c(N)ncnc1Oc1ccc2[nH]c(C)cc2c1F` [Cpd 16, 4-amino-6-(4-fluoro-2-methyl-1H-indol-5-yloxy)-pyrimidine-5-carbaldehyde O-(2-methylamino-ethyl)-oxime]: the IC50 is more than 100 µM in assay [1]; 2.01 µM in assay [2]; more than 100 µM in assay [3]; more than 100 µM in assay [4]; 10.9 µM in assay [5]; 3.04 µM in assay [6]. Further, in assay [7], half-maximal inhibition (IC50) required 0.345 µM.
In the case of `Cc1cc2c(F)c(Oc3ncnc(N)c3C=NOCc3ccccc3)ccc2[nH]1` [Cpd 36, 4-amino-6-(4-fluoro-2-methyl-1H-indol-5-yloxy)-pyrimidine-5-carbaldehyde O-benzyl-oxime], the IC50 was more than 100 µM in assay [1]; 0.266 µM in assay [2]; more than 100 µM in assay [3]; more than 100 µM in assay [4]; more than 100 µM in assay [5]; 0.311 µM in assay [6]. In addition, the IC50 in assay [7] turned out to be 0.062 µM.
In the case of `CCCCON=Cc1c(N)ncnc1Oc1ccc2[nH]c(C)cc2c1F` [Cpd 37, 4-amino-6-(4-fluoro-2-methyl-1H-indol-5-yloxy)-pyrimidine-5-carbaldehyde O-butyl-oxime], the IC50 in assay [1] is more than 100 µM; in assay [2] it was 0.607 µM; in assay [3], more than 100 µM; in assay [4], more than 100 µM; in assay [5], more than 100 µM; in assay [6], 3 µM. The compound also came in with an IC50 in assay [7] of 0.446 µM.
As to `CON=Cc1c(N)ncnc1Oc1ccc2[nH]ccc2c1F` [Cpd 7, 4-amino-6-(4-fluoro-1H-indol-5-yloxy)-pyrimidine-5-carbaldehyde O-methyl-oxime], the IC50 was more than 100 µM in assay [1]; 0.401 µM in assay [2]; more than 0.1 µM in assay [3]; more than 100 µM in assay [4]; 0.653 µM in assay [5]; 0.365 µM in assay [6]. Also, the IC50 in assay [7] is 0.492 µM.
For the compound `COCCON=Cc1c(N)ncnc1Oc1ccc2[nH]c(C)cc2c1F` [Cpd 28, 4-amino-6-(4-fluoro-2-methyl-1H-indol-5-yloxy)-pyrimidine-5-carbaldehyde O-(2-methoxy-ethyl)-oxime], the IC50 was more than 100 µM in assay [1]; 0.308 µM in assay [2]; more than 100 µM in assay [3]; more than 100 µM in assay [4]; approximately 10 µM in assay [5]; 0.387 µM in assay [6]. This compound also displayed an IC50 in assay [7] of 0.233 µM.
Consider `Cc1cc2c(F)c(Oc3ncnc(N)c3C=NOCCN3CCCC3)ccc2[nH]1` [Cpd 13, 4-amino-6-(4-fluoro-2-methyl-1H-indol-5-yloxy)-pyrimidine-5-carbaldehyde O-(2-pyrrolidin-1yl-ethyl)-oxime], for which the IC50 in assay [1] is more than 100 µM; in assay [2], 4.22 µM; in assay [3], more than 100 µM; in assay [4], approximately 100 µM; in assay [5], more than 10 µM; in assay [6], 4.61 µM. The compound further yielded an IC50 in assay [7] of 2.16 µM.
Take `C#CCON=Cc1c(N)ncnc1Oc1ccc2[nH]c(C)cc2c1F` [Cpd 30, 4-amino-6-(4-fluoro-2-methyl-1H-indol-5-yloxy)-pyrimidine-5-carbaldehyde O-prop-2-ynyl-oxime]: the IC50 in assay [1] is more than 100 µM; in assay [3], approximately 10 µM; in assay [4], more than 100 µM; in assay [5] it was more than 10 µM.
`Cc1cc2c(F)c(Oc3ncnc(N)c3C=NOCCN3CCOCC3)ccc2[nH]1` [Cpd 14, 4-amino-6-(4-fluoro-2-methyl-1H-indol-5-yloxy)-pyrimidine-5-carbaldehyde O-(2-morpholin-4-yl-ethyl)-oxime]: the IC50 in assay [1] was more than 100 µM; in assay [3], more than 100 µM; in assay [4], more than 100 µM; in assay [5], approximately 10 µM.
`Cc1cc2c(F)c(Oc3ncnc(N)c3C=NOCCN(C)C)ccc2[nH]1` [Cpd 15, 4-amino-6-(4-fluoro-2-methyl-1H-indol-5-yloxy)-pyrimidine-5-carbaldehyde O-(2-dimethylamino-ethyl)-oxime]: the IC50 in assay [1] is more than 100 µM; in assay [3] it was more than 100 µM; in assay [4] it was more than 100 µM; in assay [5], 36.1 µM.
Take `Cc1cc2c(F)c(Oc3ncnc(N)c3C=NOCCO)ccc2[nH]1` [Cpd 12, 4-amino-6-(4-fluoro-2-methyl-1H-indol-5-yloxy)-pyrimidine-5-carbaldehyde O-(2-hydroxy-ethyl)-oxime]: the IC50 in assay [1] was more than 100 µM; in assay [2], 0.406 µM; in assay [3] it was more than 10 µM; in assay [4], approximately 100 µM; in assay [5] it was 9.59 µM; in assay [6] it was 0.323 µM. For the same compound, in assay [7], the IC50 amounted to 0.372 µM.
Regarding `CON=Cc1c(N)ncnc1Oc1ccc2[nH]cc(C)c2c1` [Cpd 9, 4-amino-6-(3-methyl-1H-indol-5-yloxy)-pyrimidine-5-carbaldehyde O-methyl-oxime], the IC50 was more than 100 µM in assay [1]; 0.306 µM in assay [2]; more than 100 µM in assay [3]; more than 10 µM in assay [4]; 0.208 µM in assay [5]; 0.385 µM in assay [6]. The same compound displayed an IC50 in assay [7] of 0.132 µM.
Turning to `CCCON=Cc1c(N)ncnc1Oc1ccc2[nH]c(C)cc2c1F` [Cpd 34, 4-amino-6-(4-fluoro-2-methyl-1H-indol-5-yloxy)-pyrimidine-5-carbaldehyde O-propyl-oxime], the IC50 in assay [1] was more than 100 µM; in assay [2], 0.04 µM; in assay [3], approximately 10 µM; in assay [4] it was more than 100 µM; in assay [5], more than 100 µM; in assay [6], 0.03 µM. In assay [7], this compound came in with an IC50 of 0.028 µM.
As for `CON=Cc1c(N)ncnc1Oc1ccc2cccnc2c1` [Cpd 6, 4-amino-6-(quinolin-7-yloxy)-pyrimidine-5-carbaldehyde O-methyl-oxime], the IC50 is more than 100 µM in assay [1]; 1.82 µM in assay [2]; more than 10 µM in assay [3]; more than 100 µM in assay [4]; more than 10 µM in assay [5]; 2.62 µM in assay [6]. Moreover, the IC50 in assay [7] was determined as 0.886 µM.
For the compound `CON=Cc1c(N)ncnc1Oc1cc2cc[nH]c2cc1F` [Cpd 8, 4-amino-6-(6-fluoro-1H-indol-5-yloxy)-pyrimidine-5-carbaldehyde O-methyl-oxime], the IC50 in assay [1] is more than 100 µM; in assay [2], 0.382 µM; in assay [3], more than 1 µM; in assay [4], more than 10 µM; in assay [5], more than 1 µM; in assay [6] it was 0.422 µM. The compound further showed an IC50 in assay [7] of 0.327 µM.
